Type in all cases: binding
Assay [1] concerns the target T1, human serotonin transporter (hSERT) (Homo sapiens, UniProt P31645).
T1 construct: expressed in transfected cells; Tatsumi et al. 1997
Nature of the assay: Screening for human serotonin transporter (hSERT) antagonists, scintillation proximity assay (SPA). The following applies: competition with [3H]-Citalopram; membranes of HEK-293 cells expressing recombinant hSERT. On the procedure: The screening assay of this example was used to determine the affinity of ligands at the hSERT transporter by competition with [^3H]-Citalopram.
Scintillation Proximity Assay (SPA) works by bringing radioligand within close proximity to the bead's scintillant to stimulate light emission. In this assay, the receptor-containing membranes were pre-coupled to the SPA beads and the binding of the appropriate radioligand to the transporter was measured. The light emission was proportional to the amount of bound radioligand. Unbound radioligand produced no signal as a result of distant proximity to scintillant (lack of energy transfer). […]
(§1) Cell membranes were prepared using a membrane preparation buffer of 50 mM TRIS (pH 7.4). […] After a second centrifugation, the pellet was re-homogenized and brought to a final volume determined during the assay. […]
The % inhibition was calculated for each compound tested [(Compound counts per minute (CPM) at maximum concentration-Non-Specific CPM)/Total CPM*100]. […]
(§2) [formula] where max=total binding, min=non specific binding, x=concentration (M) of the tested compound and n=Hill slope. The inhibition dissociation constant (Ki) of each compound was determined according to the method of Cheng-Prusoff and then converted into negative logarithm (pKi) of the Ki.

The target in assay [2] is T2, human norepinephrine transporter (hNET) (Homo sapiens, UniProt P23975).
T2 construct: expressed in transfected cells; Clone: HEK-hNET #2)
T2 sequence (P23975 whole entry): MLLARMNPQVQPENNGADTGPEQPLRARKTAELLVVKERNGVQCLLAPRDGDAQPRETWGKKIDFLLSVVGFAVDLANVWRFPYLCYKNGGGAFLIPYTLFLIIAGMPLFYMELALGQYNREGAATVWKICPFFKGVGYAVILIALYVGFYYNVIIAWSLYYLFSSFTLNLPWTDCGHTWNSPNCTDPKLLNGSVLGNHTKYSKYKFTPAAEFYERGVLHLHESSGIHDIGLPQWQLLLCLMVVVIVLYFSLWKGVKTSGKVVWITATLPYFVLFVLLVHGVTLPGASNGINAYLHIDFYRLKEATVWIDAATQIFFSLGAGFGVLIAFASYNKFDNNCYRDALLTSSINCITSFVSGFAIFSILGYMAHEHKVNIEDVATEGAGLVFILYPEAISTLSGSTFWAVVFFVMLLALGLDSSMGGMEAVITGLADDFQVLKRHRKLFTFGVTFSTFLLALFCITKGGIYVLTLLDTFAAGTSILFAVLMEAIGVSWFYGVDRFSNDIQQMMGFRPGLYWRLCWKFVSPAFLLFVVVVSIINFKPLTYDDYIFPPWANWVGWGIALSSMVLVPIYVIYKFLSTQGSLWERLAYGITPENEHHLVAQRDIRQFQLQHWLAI
Kind of assay: Screening for compounds active at human norepinephrine transporter (hNET), scintillation proximity assay (SPA). The conditions noted are these: competition with [3H]-Nisoxetine; membranes of HEK-293 cells expressing recombinant hNET. On the procedure:
This assay was used to determine the affinity of ligands for the hNET transporter by competition with [^3H]-Nisoxetine. As in the hSERT assay of the above example, receptor-containing membranes were pre-coupled to the SPA beads and the binding of the appropriate radioligand to the transporter was measured. The light emission was proportional to the amount of bound radioligand, with unbound radioligand producing no signal.
HEK-293 cells (Tatsumi et al., Eur. J. Pharmacol. 1997, 30, 249-258) stably expressing recombinant hNET (Clone: HEK-hNET #2) were maintained with media (DMEM hi glucose with 10% FBS, 300 μg/ml G418 and 2 mM L-Glutamine) and incubated at 37° C. with 5% CO2. Cells were released from culture flasks using PBS for 1-2 minutes. […]
as §1
^3[H] […] The mixtures were allowed to stand at room temperature for one hour, and were then counted on a Packard TopCount LCS, a generic SPA counting protocol settings (Energy Range: Low, Efficiency Mode: Normal, Region A: 1.50-35.00, Region B: 1.50-256.00, Count Time (min.): 0.40, Background Subtract: none, Half-Life Correction: no, Quench Indicator: tSIS, Platemap blank subtraction: No, Cross talk reduction: Off). […]

Assay [3] has as its target T3, human dopamine transporter (hDAT) (Homo sapiens, UniProt Q01959).
T3 construct: expressed in transfected cells; Tatsumi et al. 1997
Nature of the assay: Screening for compounds active at human dopamine transporter, scintillation proximity assay (SPA). The conditions noted are these: competition with [3H]-Vanoxerine; HEK-293 cells expressing recombinant hDAT. Here is the method: This assay was used to determine the affinity of ligands for the dopamine transporter by competition with [^3H]-Vanoxerine.
HEK-293 cells (Tatsumi et al., Eur. J. Pharmacol. 1997, 30, 249-258) stably expressing recombinant hDAT were maintained with media (DMEM hi glucose with 10% FBS, 300 μg/ml G418 and 2 mM L-Glutamine) and incubated at 37° C. with 5% CO2. Cells were plated four hours prior to experiment by placing approximately 30,000 cells per well (in PBS) on white, opaque Cell-Tak coated 96 well plates. Extra buffer was apriated from the cell plates using an ELx405 plate washer.
^3[H] vanoxerine (GBR 12909) radioligand, specific activity approximately 59 Ci/mmol, stock concentration, 400 nM, and 50 mM Tris-HCl, 300 mM NaCl, (pH 7.4) buffers were used for Scintillation Proximity Assay IC50/Ki determination. […]
The % inhibition was calculated for each compound tested [(Compound CPM at maximum concentration-Non-Specific CPM)/Total CPM*100]. […]
as §2

T3 sequence (Q01959 whole entry): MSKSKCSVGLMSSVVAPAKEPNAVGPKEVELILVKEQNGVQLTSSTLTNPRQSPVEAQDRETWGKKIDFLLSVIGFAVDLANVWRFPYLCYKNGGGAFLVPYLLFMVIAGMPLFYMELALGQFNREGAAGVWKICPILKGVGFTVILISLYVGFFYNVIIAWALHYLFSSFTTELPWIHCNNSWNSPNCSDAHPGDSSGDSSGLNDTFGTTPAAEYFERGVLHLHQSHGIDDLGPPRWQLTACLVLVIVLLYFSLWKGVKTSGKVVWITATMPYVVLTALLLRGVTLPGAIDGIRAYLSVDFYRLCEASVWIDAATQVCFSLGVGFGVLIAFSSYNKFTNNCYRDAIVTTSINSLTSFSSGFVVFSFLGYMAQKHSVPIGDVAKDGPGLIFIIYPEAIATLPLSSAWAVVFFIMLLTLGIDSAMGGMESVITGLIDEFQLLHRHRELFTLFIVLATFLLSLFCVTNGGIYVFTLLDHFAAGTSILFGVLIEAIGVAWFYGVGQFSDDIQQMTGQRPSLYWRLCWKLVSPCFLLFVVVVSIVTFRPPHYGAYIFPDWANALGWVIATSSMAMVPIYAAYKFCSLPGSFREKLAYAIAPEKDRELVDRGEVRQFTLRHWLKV
T1 sequence (P31645 whole entry): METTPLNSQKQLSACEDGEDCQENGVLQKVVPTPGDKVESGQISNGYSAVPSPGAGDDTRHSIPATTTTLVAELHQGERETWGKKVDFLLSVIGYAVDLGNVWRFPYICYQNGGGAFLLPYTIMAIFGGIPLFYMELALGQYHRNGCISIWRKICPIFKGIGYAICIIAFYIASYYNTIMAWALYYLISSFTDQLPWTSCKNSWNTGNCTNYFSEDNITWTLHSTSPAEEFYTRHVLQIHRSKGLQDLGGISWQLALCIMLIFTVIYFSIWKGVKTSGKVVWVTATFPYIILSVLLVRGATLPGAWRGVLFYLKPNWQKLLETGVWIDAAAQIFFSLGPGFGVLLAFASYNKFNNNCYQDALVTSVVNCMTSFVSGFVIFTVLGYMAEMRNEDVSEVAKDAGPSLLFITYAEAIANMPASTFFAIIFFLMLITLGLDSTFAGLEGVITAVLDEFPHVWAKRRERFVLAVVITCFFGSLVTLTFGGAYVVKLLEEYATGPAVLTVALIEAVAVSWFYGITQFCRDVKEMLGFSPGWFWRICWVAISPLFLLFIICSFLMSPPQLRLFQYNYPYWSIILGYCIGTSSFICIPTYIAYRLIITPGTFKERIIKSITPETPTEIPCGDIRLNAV

For the compound `Fc1cccc(CN(c2ccc3[nH]ncc3c2)C2CCNCC2)c1` [Compound 53, (3-Fluoro-benzyl)-(1H-indazol-5-yl)-piperidin-4-yl-amine], the Ki in assay [1] was about 0.316 nM. As for `COc1cccc(CN(c2ccc3[nH]ncc3c2)C2CCNCC2)c1` [Compound 54, (1H-Indazol-5-yl)-(3-methoxy-benzyl)-piperidin-4-yl-amine], the inhibition constant Ki in assay [2] was about 1.58 nM.

Consider `NS(=O)(=O)c1cccc(CN(c2ccc3[nH]ccc3c2)C2CCNCC2)c1` [Compound 69, 3-{[(1H-Indol-5-yl)-piperidin-4-yl-amino]-methyl}-benzenesulfonamide], for which the Ki in assay [3] was about 10 nM.

These data come from patent US8093285B2, “Aminopiperidinyl derivatives and uses thereof” (Roche Palo Alto LLC, priority 2008, dated 2012).
